Measured values as given in US9023789B2, “Amylin analogs and pharmaceutical compositions thereof” (Novo Nordisk A/S, priority 2012, dated 2015).
Values after ≈ are worked out from the molar mass of the structure shown. Like-named read-outs stand apart in the source and are kept apart here. Numbered stars: 1 amine (or outer) side, 2 acyl side, 3 side chain; on linkers, the order of the positions; unused ones are H or OH. Bridge positions count the residues as written; N and C are the ends. Side chains are listed from the residue outwards. Peptide text beside a SMILES is read from it. * marks the point of attachment. C20 diacid = O=C(O)CCCCCCCCCCCCCCCCCCC(=O)*; γGlu = O=C(O)[C@H](CCC(=O)[*:2])N[*:1]; AEEA = NCCOCCOCC(=O)O

Assays:
[1] = biological target: T1, human calcitonin receptor (Homo sapiens, UniProt P30988); assay: ASSAY (VII) binding to the human calcitonin receptor (SPA, 125I-Calcitonin); details: read-out: hCTR bind IC50;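 note: cell membranes (35 ng/µL) combined with SPA beads in 40 µL of pH 7.4 Hepes buffer, 384-well format, signal counted on a TopCounter instrument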
T1 construct: expressed in transfected cells
T1 sequence (P30988 25-474): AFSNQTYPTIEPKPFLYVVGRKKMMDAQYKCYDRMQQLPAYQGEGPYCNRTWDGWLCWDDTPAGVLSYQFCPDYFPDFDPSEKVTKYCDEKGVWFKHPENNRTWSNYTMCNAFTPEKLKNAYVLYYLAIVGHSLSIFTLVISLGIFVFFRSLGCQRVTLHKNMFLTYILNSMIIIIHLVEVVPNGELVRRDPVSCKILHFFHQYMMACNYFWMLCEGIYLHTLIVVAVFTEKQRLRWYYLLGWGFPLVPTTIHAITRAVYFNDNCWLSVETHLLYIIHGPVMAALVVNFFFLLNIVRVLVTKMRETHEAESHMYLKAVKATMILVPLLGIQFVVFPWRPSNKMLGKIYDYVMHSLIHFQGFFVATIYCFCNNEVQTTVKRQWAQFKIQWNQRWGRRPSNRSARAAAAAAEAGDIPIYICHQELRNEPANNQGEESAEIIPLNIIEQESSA

[2] = ASSAY (IV) determination of solubility; assay type: physicochemical
Method in brief: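 Polypeptide in water at […] mixed 1:1 with 100 mM buffers of pH 3.0-8.0 (glycylglycine pH 3-5, bistrispropane pH 6-8). Held 18 h at room temperature, then centrifuged; concentration remaining in solution measured by UPLC.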

rat calcitonin receptor = biological target: T2, rat calcitonin receptor (Rattus norvegicus, UniProt P32214); assay: ASSAY (VIII) binding to the rat calcitonin receptor; details: Table 7, read-out: rCTR bind IC50
T2 construct: expressed in transfected cells; host or cells: BHK tk'ts 13 (transient, FuGENE 6), membranes
T2 sequence (P32214 25-479 isoform P32214-2 limits assumed): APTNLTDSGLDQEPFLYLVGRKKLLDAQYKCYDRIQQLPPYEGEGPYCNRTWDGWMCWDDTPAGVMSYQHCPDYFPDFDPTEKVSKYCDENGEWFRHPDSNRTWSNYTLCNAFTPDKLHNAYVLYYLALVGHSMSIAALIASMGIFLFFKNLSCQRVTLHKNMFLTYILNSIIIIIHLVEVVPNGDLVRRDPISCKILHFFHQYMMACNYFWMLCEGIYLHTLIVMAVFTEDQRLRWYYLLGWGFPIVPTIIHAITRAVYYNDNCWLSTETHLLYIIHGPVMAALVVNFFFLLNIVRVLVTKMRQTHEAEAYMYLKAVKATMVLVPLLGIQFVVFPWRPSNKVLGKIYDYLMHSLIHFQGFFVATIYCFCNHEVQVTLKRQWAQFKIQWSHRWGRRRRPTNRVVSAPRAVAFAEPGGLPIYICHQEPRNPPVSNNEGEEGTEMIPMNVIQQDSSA
Method in brief: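 Membranes were prepared from BHK tk′ts 13 cells transiently transfected with rat calcitonin receptor. Cells were grown in DMEM with 10% FBS and harvested approximately 48 hours after transfection.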

[3] = biological target: T3, rat amylin receptor (rat calcitonin receptor + rat RAMP 3) (Rattus norvegicus, UniProt P32214+Q9JJ73); assay: ASSAY (VI) binding to the rat amylin receptor; details: for IC50: binding to rat amylin receptor, read-out: rAmylin-R bind IC50
T3 construct: expressed in transfected cells; host or cells: BHK tk'ts 13 (transient, FuGENE 6), membranes
T3 sequence (P32214 25-479 isoform P32214-2 limits assumed): T2 sequence (P32214 25-479 isoform P32214-2 limits assumed)
T3 sequence (Q9JJ73 23-147 partner): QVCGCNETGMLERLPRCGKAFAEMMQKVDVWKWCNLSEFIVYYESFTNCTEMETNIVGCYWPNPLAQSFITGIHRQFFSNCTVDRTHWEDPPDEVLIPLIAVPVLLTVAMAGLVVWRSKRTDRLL
Method in brief: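 This assay measured binding to the rat amylin receptor. BHK tk′ts 13 cells were transiently transfected with the rat calcitonin receptor using FuGENE® 6 (Roche), following the manufacturer's recommendations. About 48 hours after transfection, the cells were harvested and membranes were prepared from them for the binding determination.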

[4] = biological target: T4, human calcitonin (a) receptor in BHK570 cells (Homo sapiens, UniProt P30988); assay: ASSAY (II)a functional assay, human calcitonin receptor (CRE luciferase); assay type: cell-based; details: read-out: hCTR funct. EC50
T4 construct: expressed in transfected cells
T4 sequence (P30988 25-474): T1 sequence (P30988 25-474)
Method in brief: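 BHK CRE-luc cells, calcitonin (a) receptor ± RAMP-3 (amylin 3(a)); overnight seeding, 37° C/5% CO2. 3 h ligand exposure, DMEM/10% FBS/10 mM Hepes pH 7.4. LucLite 30 min RT; luminescence (SPC).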

[5] = biological target: T5, human amylin receptor (membranes from Amylin 3(a)/CRE-luc cells) (Homo sapiens, UniProt O60896+P30988); assay: ASSAY (V) binding to the human amylin receptor (SPA, 125I-rat amylin); details: for IC50: Table 4, read-out: hAmylin-R bind IC50;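 for all read-outs here: competition binding of cell membranes (35 ng/µL) mixed with SPA beads in 384-well plates at 40 µL total volume, read by scintillation counting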
T5 construct: expressed in transfected cells
T5 sequence (P30988 25-474): T1 sequence (P30988 25-474)
T5 sequence (O60896 24-148 partner): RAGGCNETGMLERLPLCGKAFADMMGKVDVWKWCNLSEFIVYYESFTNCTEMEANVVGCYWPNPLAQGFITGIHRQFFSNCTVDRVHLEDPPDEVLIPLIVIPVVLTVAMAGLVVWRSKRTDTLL

[6] = bistrispropane buffer, pH 6.5, read-out: Solubility pH 6.5 Concentration
[7] = bistrispropane buffer, pH 7.5, read-out: Solubility pH 7.5 Concentration
[8] = bistrispropane buffer, pH 6.0, read-out: Solubility pH 6.0 Concentration
[9] = bistrispropane buffer, pH 7.0, read-out: Solubility pH 7.0 Concentration
[10] = bistrispropane buffer, pH 8.0, read-out: Solubility pH 8.0 Concentration
[11] = glycylglycine buffer, pH 3.0, read-out: Solubility pH 3.0 Concentration
[12] = glycylglycine buffer, pH 4.0, read-out: Solubility pH 4.0 Concentration
[13] = glycylglycine buffer, pH 5.0, read-out: Solubility pH 5.0 Concentration
[14] = Table 7, rat binding selectivity, rCTR IC50 / rAmylin-R IC50
[15] = Table 7a (preferred compounds), rat binding selectivity, rCTR IC50 / rAmylin-R IC50
[16] = ratio of rCTR bind IC50 to rAmylin-R bind IC50
[17] = Table 5, selectivity, hCTR bind IC50 / hAmylin-R bind IC50
[18] = Table 5a, selectivity, hCTR bind IC50 / hAmylin-R bind IC50
[19] = Table 5b, selectivity, hCTR bind IC50 / hAmylin-R bind IC50
[20] = Table 5c, selectivity, hCTR bind IC50 / hAmylin-R bind IC50
[21] = Table 7, human binding selectivity, included for comparison
[22] = Table 7a (preferred compounds), human binding selectivity, included for comparison
[23] = ratio of human calcitonin receptor binding IC50 to human amylin receptor binding IC50

IC50 [1] [nM]	solubility at 18 h [2, 6] [µM]	solubility at 18 h [2, 7] [µM]	solubility at 18 h [2, 8] [µM]	solubility at 18 h [2, 9] [µM]	solubility at 18 h [2, 10] [µM]	solubility at 18 h [2, 11] [µM]	solubility at 18 h [2, 12] [µM]	solubility at 18 h [2, 13] [µM]	IC50 (rat calcitonin receptor) [nM]	IC50 ([3]; Table 7) [nM]	Ratio rCT/rAmylin binding [3, 14]	Ratio rCT/rAmylin binding [3, 15]	Ratio rCT/rAmylin binding [3, 16]	EC50 [4] [nM]	IC50 [5] [nM]	Ratio hCT/hAmylin binding [5, 17]	Ratio hCT/hAmylin binding [5, 18]	Ratio hCT/hAmylin binding [5, 19]	Ratio hCT/hAmylin binding [5, 20]	Structure (SMILES)	other results
17.5	≥ 200	184 (≈ 842 µg/mL)	≥ 200	≥ 200	166 (≈ 760 µg/mL)	≥ 200	≥ 200	≥ 200	38.3	0.339	112.9	112.9	112.9	8.16	0.326	53.6	53.6	53.6	53.6	CC[C@H](C)[C@H](NC(=O)[C@H](C)NC(=O)CNC(=O)[C@H](Cc1ccccc1)NC(=O)[C@H](CC(N)=O)NC(=O)[C@@H]1CCCN1C(=O)[C@H](CO)NC(=O)[C@H](CO)NC(=O)[C@H](Cc1c[nH]cn1)NC(=O)[C@H](CCCNC(=N)N)NC(=O)[C@H](CC(C)C)NC(=O)[C@H](Cc1ccccc1)NC(=O)[C@H](CCC(=O)O)NC(=O)[C@H](C)NC(=O)[C@H](CC(C)C)NC(=O)[C@H](CCCNC(=N)N)NC(=O)[C@H](CCC(N)=O)NC(=O)[C@@H](NC(=O)[C@H](C)NC(=O)[C@@H]1CSSC[C@H](NC(=O)[C@@H](N)CCCCNC(=O)CC[C@H](NC(=O)CC[C@H](NC(=O)CCCCCCCCCCCCCCCCCCC(=O)O)C(=O)O)C(=O)O)C(=O)N[C@@H](CC(N)=O)C(=O)N[C@@H]([C@@H](C)O)C(=O)N[C@@H](C)C(=O)N[C@@H]([C@@H](C)O)C(=O)N1)[C@@H](C)O)C(=O)N1CCC[C@H]1C(=O)N[C@@H](CO)C(=O)N[C@@H](CO)C(=O)N[C@H](C(=O)N[C@@H](CC(N)=O)C(=O)N[C@H](C(=O)NCC(=O)N1CCC[C@H]1C(=O)N[C@@H](CCCNC(=N)N)C(=O)N[C@H](C(=O)N[C@@H](Cc1ccc(O)cc1)C(N)=O)[C@@H](C)O)C(C)C)[C@@H](C)O [Example 110] (H-K([γGlu-γGlu-C20 diacid])CNTATCATQRLAEFLRHSSPNFGAIPSSTNVGPRTY-NH2; disulfide 2-7)	Ratio hCT/hAmylin binding [5, 21]: 53.6; Ratio hCT/hAmylin binding [5, 22]: 53.6; Ratio hCT/hAmylin binding [5, 23]: 53.6
88.9	≥ 200	≥ 200	≥ 200	≥ 200	≥ 200	≥ 200	≥ 200	≥ 200	477	5.05	94.3	94.3	94.3	5.49	0.743	119.6	119.6	119.6	119.6	CC[C@H](C)[C@H](NC(=O)[C@H](C)NC(=O)CNC(=O)[C@H](Cc1ccccc1)NC(=O)[C@H](CC(N)=O)NC(=O)[C@@H]1CCCN1C(=O)[C@H](CO)NC(=O)[C@H](CO)NC(=O)[C@H](Cc1c[nH]cn1)NC(=O)[C@H](CCCNC(=N)N)NC(=O)[C@H](CC(C)C)NC(=O)[C@H](Cc1ccccc1)NC(=O)[C@H](Cc1c[nH]cn1)NC(=O)[C@H](C)NC(=O)[C@H](CC(C)C)NC(=O)[C@H](CCCNC(=N)N)NC(=O)[C@H](CCC(N)=O)NC(=O)[C@@H](NC(=O)[C@H](C)NC(=O)[C@@H]1CSSC[C@H](NC(=O)[C@@H](N)CCCCNC(=O)COCCOCCNC(=O)CC[C@H](NC(=O)CCCCCCCCCCCCCCCCCCC(=O)O)C(=O)O)C(=O)N[C@@H](CC(N)=O)C(=O)N[C@@H]([C@@H](C)O)C(=O)N[C@@H](C)C(=O)N[C@@H]([C@@H](C)O)C(=O)N1)[C@@H](C)O)C(=O)N1CCC[C@H]1C(=O)N[C@@H](CO)C(=O)N[C@@H](CO)C(=O)N[C@H](C(=O)N[C@@H](CC(N)=O)C(=O)N[C@H](C(=O)NCC(=O)N[C@@H](CCCNC(=N)N)C(=O)N[C@@H](CC(N)=O)C(=O)N[C@H](C(=O)N[C@@H](Cc1ccc(O)cc1)C(N)=O)[C@@H](C)O)C(C)C)[C@@H](C)O [Example 84] (H-K([AEEA-γGlu-C20 diacid])CNTATCATQRLAHFLRHSSPNFGAIPSSTNVGRNTY-NH2; disulfide 2-7 (inferred); N-terminus assumed)	Ratio hCT/hAmylin binding [5, 21]: 119.6; Ratio hCT/hAmylin binding [5, 22]: 119.6; Ratio hCT/hAmylin binding [5, 23]: 119.6
6.62	≥ 200	≥ 200	≥ 200	≥ 200	≥ 200	≥ 200	≥ 200	≥ 200	86.1	1.06	81.1	81.1	81.1	2.75	0.232	28.5	28.5	28.5	28.5	CC[C@H](C)[C@H](NC(=O)[C@H](C)NC(=O)CNC(=O)[C@H](Cc1ccccc1)NC(=O)[C@H](CC(N)=O)NC(=O)[C@@H]1CCCN1C(=O)[C@H](CO)NC(=O)[C@H](CO)NC(=O)[C@H](Cc1c[nH]cn1)NC(=O)[C@H](CCCNC(=N)N)NC(=O)[C@H](CC(C)C)NC(=O)[C@H](Cc1ccccc1)NC(=O)[C@H](CCC(=O)O)NC(=O)[C@H](C)NC(=O)[C@H](CC(C)C)NC(=O)[C@H](CCCNC(=N)N)NC(=O)[C@H](CCC(N)=O)NC(=O)[C@@H](NC(=O)[C@H](C)NC(=O)[C@@H]1CSSC[C@H](NC(=O)[C@@H](N)CCCCNC(=O)CC[C@H](NC(=O)CCCCCCCCCCCCCCCCCCC(=O)O)C(=O)O)C(=O)N[C@@H](CC(N)=O)C(=O)N[C@@H]([C@@H](C)O)C(=O)N[C@@H](C)C(=O)N[C@@H]([C@@H](C)O)C(=O)N1)[C@@H](C)O)C(=O)N1CCC[C@H]1C(=O)N[C@@H](CO)C(=O)N[C@@H](CO)C(=O)N[C@H](C(=O)N[C@@H](CC(N)=O)C(=O)N[C@H](C(=O)NCC(=O)N[C@@H](CCCNC(=N)N)C(=O)N[C@@H](CCC(=O)O)C(=O)N[C@H](C(=O)N[C@@H](Cc1ccc(O)cc1)C(N)=O)[C@@H](C)O)C(C)C)[C@@H](C)O [Example 108] (H-K([γGlu-C20 diacid])CNTATCATQRLAEFLRHSSPNFGAIPSSTNVGRETY-NH2; disulfide 2-7; N-terminus assumed)	Ratio hCT/hAmylin binding [5, 21]: 28.5; Ratio hCT/hAmylin binding [5, 22]: 28.5; Ratio hCT/hAmylin binding [5, 23]: 28.5
